In patent US8765721B2, “Composition comprising phosphatidyl serine and an antigen or allergen and the use thereof” (Vaccine Technology Limited, priority 2004, dated 2014):

What was measured:
Assay type in all cases: in vivo, rat
IgG1 = experiment: Ovalbumin-specific IgG1 ELISA of serum of immunised rats; conditions: pooled group serum
IgG2a = experiment: Ovalbumin-specific IgG2a ELISA of serum of immunised rats; conditions: pooled group serum
IgG2b = experiment: Ovalbumin-specific IgG2b ELISA of serum of immunised rats; conditions: pooled group serum
IgE [1] = experiment: Ovalbumin-specific IgE ELISA of serum of immunised rats; conditions: pooled group serum
IgE [2] = experiment: as above; conditions: Day 1; 250 ug with 20 μg Ova s.c. on days 21 and 42; pooled group serum
IgA [3] = experiment: Ovalbumin-specific IgA ELISA of serum of immunised rats; conditions: pooled group serum
IgA [4] = experiment: as above; conditions: Day 1; 50 ug with 20 μg Ova s.c. on days 21 and 42; pooled group serum
[5] = Day 1, 50 ug with 20 μg Ova s.c. on days 21 and 42
[6] = Day 1, 250 ug with 20 μg Ova s.c. on days 21 and 42
[7] = Day 15, 50 ug with 20 μg Ova s.c. on days 21 and 42
[8] = Day 15, 250 ug with 20 μg Ova s.c. on days 21 and 42
[9] = Day 22, 50 ug with 20 μg Ova s.c. on days 21 and 42
[10] = Day 22, 250 ug with 20 μg Ova s.c. on days 21 and 42
[11] = Day 29, 50 ug with 20 μg Ova s.c. on days 21 and 42
[12] = Day 29, 250 ug with 20 μg Ova s.c. on days 21 and 42
[13] = Day 36, 50 ug with 20 μg Ova s.c. on days 21 and 42
[14] = Day 36, 250 ug with 20 μg Ova s.c. on days 21 and 42
[15] = Day 43, 50 ug with 20 μg Ova s.c. on days 21 and 42
[16] = Day 43, 250 ug with 20 μg Ova s.c. on days 21 and 42
[17] = Day 50, 50 ug with 20 μg Ova s.c. on days 21 and 42
[18] = Day 50, 250 ug with 20 μg Ova s.c. on days 21 and 42
[19] = Day 57, 50 ug with 20 μg Ova s.c. on days 21 and 42
[20] = Day 57, 250 ug with 20 μg Ova s.c. on days 21 and 42
[21] = Day 64, 50 ug with 20 μg Ova s.c. on days 21 and 42
[22] = Day 64, 250 ug with 20 μg Ova s.c. on days 21 and 42

CCCCC/C=C\C/C=C\C/C=C\C/C=C\CCCC(=O)O[C@H](COC(=O)CCCCCCCCCCCCCCCCC)COP(=O)(O)OC[C@H](N)C(=O)O [VT003, Stearoyl arachadonoyl phosphatidyl serine]
5120: IgG2a endpoint titer (IgG2a; [14]) | IgG2a endpoint titer (IgG2a; [16])
640: IgG2b endpoint titer (IgG2b; [13]) | IgG2b endpoint titer (IgG2b; [14]) | IgG2b endpoint titer (IgG2b; [19]) | IgG2b endpoint titer (IgG2b; [21]) | IgA endpoint titer (IgA [3]; [13]) | IgA endpoint titer (IgA [3]; [15]) | IgA endpoint titer (IgA [3]; [18]) | IgA endpoint titer (IgA [3]; [19]) | IgA endpoint titer (IgA [3]; [20]) | IgA endpoint titer (IgA [3]; [21])
160: IgG2b endpoint titer (IgG2b; [17]) | IgA endpoint titer (IgA [3]; [14])
0: IgG1 endpoint titer (IgG1; [5]) | IgG1 endpoint titer (IgG1; [6]) | IgG2a endpoint titer (IgG2a; [5]) | IgG2a endpoint titer (IgG2a; [6]) | IgG2b endpoint titer (IgG2b; [5]) | IgG2b endpoint titer (IgG2b; [6]) | IgE endpoint titer (IgE [1]; [5]) | IgE endpoint titer (IgE [1]; [7]) | IgE endpoint titer (IgE [1]; [8]) | IgE endpoint titer (IgE [1]; [9]) | IgE endpoint titer (IgE [1]; [10]) | IgE endpoint titer (IgE [1]; [11]) | IgE endpoint titer (IgE [1]; [12]) | IgE endpoint titer (IgE [1]; [13]) | IgE endpoint titer (IgE [1]; [14]) | IgE endpoint titer (IgE [1]; [15]) | IgE endpoint titer (IgE [1]; [16]) | IgE endpoint titer (IgE [2]) | IgA endpoint titer (IgA [3]; [6]) | IgA endpoint titer (IgA [3]; [7]) | IgA endpoint titer (IgA [3]; [8]) | IgA endpoint titer (IgA [3]; [9]) | IgA endpoint titer (IgA [3]; [10]) | IgA endpoint titer (IgA [4])
80: IgG2b endpoint titer (IgG2b; [10]) | IgG2b endpoint titer (IgG2b; [12]) | IgE endpoint titer (IgE [1]; [18]) | IgE endpoint titer (IgE [1]; [19])
20480: IgG1 endpoint titer (IgG1; [11]) | IgG1 endpoint titer (IgG1; [12]) | IgG1 endpoint titer (IgG1; [13]) | IgG1 endpoint titer (IgG1; [14]) | IgG1 endpoint titer (IgG1; [15]) | IgG1 endpoint titer (IgG1; [17]) | IgG1 endpoint titer (IgG1; [22]) | IgG2a endpoint titer (IgG2a; [17]) | IgG2a endpoint titer (IgG2a; [18]) | IgG2a endpoint titer (IgG2a; [21]) | IgG2a endpoint titer (IgG2a; [22])
40: IgG2a endpoint titer (IgG2a; [7]) | IgG2a endpoint titer (IgG2a; [8]) | IgG2b endpoint titer (IgG2b; [7]) | IgG2b endpoint titer (IgG2b; [8]) | IgG2b endpoint titer (IgG2b; [11]) | IgE endpoint titer (IgE [1]; [20]) | IgE endpoint titer (IgE [1]; [21]) | IgA endpoint titer (IgA [3]; [11]) | IgA endpoint titer (IgA [3]; [12])
40960: IgG1 endpoint titer (IgG1; [21])
1280: IgG2a endpoint titer (IgG2a; [9]) | IgG2a endpoint titer (IgG2a; [10]) | IgG2b endpoint titer (IgG2b; [16]) | IgG2b endpoint titer (IgG2b; [20]) | IgG2b endpoint titer (IgG2b; [22]) | IgA endpoint titer (IgA [3]; [17]) | IgA endpoint titer (IgA [3]; [22])
10240: IgG1 endpoint titer (IgG1; [16]) | IgG1 endpoint titer (IgG1; [18]) | IgG1 endpoint titer (IgG1; [19]) | IgG1 endpoint titer (IgG1; [20]) | IgG2a endpoint titer (IgG2a; [13]) | IgG2a endpoint titer (IgG2a; [15]) | IgG2a endpoint titer (IgG2a; [19]) | IgG2a endpoint titer (IgG2a; [20])
20: IgE endpoint titer (IgE [1]; [22])
2560: IgG1 endpoint titer (IgG1; [9]) | IgG1 endpoint titer (IgG1; [10]) | IgG2a endpoint titer (IgG2a; [11]) | IgG2a endpoint titer (IgG2a; [12])
320: IgG1 endpoint titer (IgG1; [7]) | IgG1 endpoint titer (IgG1; [8]) | IgG2b endpoint titer (IgG2b; [9]) | IgG2b endpoint titer (IgG2b; [15]) | IgG2b endpoint titer (IgG2b; [18]) | IgE endpoint titer (IgE [1]; [17]) | IgA endpoint titer (IgA [3]; [16])
